Laboratory results: patent EP2951180B1, “2,6,7,8 SUBSTITUTED PURINES AS HDM2 INHIBITORS” (Merck Sharp & Dohme Corp., priority 2013, dated 2014)
pIC50: −log10 of the molar value.

Target: T1, HDM2 (Homo sapiens, UniProt Q00987)
T1 construct: Thioredoxin (N); made in house; host or cells: E. coli strain BL21(DE3)Rosetta
Assay: HDM2 FRET assay (inhibition of binding of FITC labeled p53-pocket peptide to HDM2)
Conditions: 0.5 nM HDM2 (residues 17 to 125), 3nM peptide, two hour incubation at room temperature; read-out: FRET IC50
Excerpt: Methods: An HDM2 FRET assay was developed to assess the compounds' inhibitory activity towards binding of p53 protein. […] Protein was purified using Ni-affinity chromatography, followed by size exclusion chromatography using Superdex 75 26/60 column. […] The HDM2 assay buffer contained 1x Phosphate Buffered Saline (Invitrogen, Cat#14190), 0.01% BSA (Jackson ImmunoResearch, Cat# 001-000-162), 0.01% Tween-20. In the 1X assay buffer recombinant HDM2 protein, peptide and Lumi4-Tb Cryptate-conjugate mouse anti-6xHis antibody (cisbio, Cat#Tb61HISTLB) were added and transferred to ProxiPlate PLUS (PerkinElmer, Cat#6008269), containing compounds so that final DMSO concentration is 0.1% . Final concentrations of reagents in the assay wells are 0.5 nM HDM2, 0.25nM anti HIS (Tb label) antibody and 3nM peptide. […] Ratio of em520/em495 was used to calculate %inhibition and to obtain IC50 with 4-parameter logistic equation.
IC50 DETERMINATIONS: Dose-response curves were plotted from the inhibition data, from 10 point serial dilutions of inhibitory compounds. Concentration of compound was plotted against em520/Cem495 ratio signal. To generate IC50 values, the dose-response curves were fitted to a standard sigmoidal curve and IC50 values were derived by nonlinear regression analysis.

T1 sequence (Q00987 17-125): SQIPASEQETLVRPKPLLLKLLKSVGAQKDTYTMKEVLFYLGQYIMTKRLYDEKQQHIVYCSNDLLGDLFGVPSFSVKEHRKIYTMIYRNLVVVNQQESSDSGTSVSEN

Structure (SMILES)	pIC50
CC(C)c1ccnc(-c2nc3nc(C(=O)O)nc(OC(C)C4CCC4)c3n2Cc2ccc(C(F)(F)F)c(F)c2)c1 (racemic) [Example 17.7, 6-(1-cyclobutylethoxy)-7-[3-fluoro-4-(trifluoromethyl)benzyl]-8-[4-(propan-2-yl)pyridin-2-yl]-7H-purine-2-carboxylic acid]	7.82
CC(C)c1ccnc(-c2nc3nc(C(=O)O)nc(OC(C)C4CCC4)c3n2C[C@H]2CC[C@H](C)CC2)c1 (mixture of isomers) [Example 17.8, 6-(1-cyclobutylethoxy)-7-[(trans-4-methylcyclohexyl)methyl]-8-[4-(propan-2-yl)pyridin-2-yl]-7H-purine-2-carboxylic acid]	7.99
CC1CN(C)CCN1c1nc2nc(-c3noc(=O)[nH]3)nc(-c3cccc(Cl)c3)c2n1C[C@H]1CC[C@H](C)CC1 (relative stereo) [Example 16.53, 3-{6-(3-chlorophenyl)-8-(2,4-dimethylpiperazin-1-yl)-7-[(trans-4-methylcyclohexyl)methyl]-7H-purin-2-yl}-1,2,4-oxadiazol-5(4H)-one]	7.37
C[C@H]1CC[C@H](Cn2c(N3CCC4OCCC43)nc3nc(-c4noc(=O)[nH]4)nc(-c4cccc(Cl)c4)c32)CC1 (relative stereo) [Example 16.150, 3-{6-(3-chlorophenyl)-8-(hexahydro-4H-furo[3,2-b]pyrrol-4-yl)-7-[(trans-4-methylcyclohexyl)methyl]-7H-purin-2-yl}-1,2,4-oxadiazol-5(4H)-one]	7.35
CC(c1nc2nc(-c3noc(=O)[nH]3)nc(-c3cccc(Cl)c3)c2n1C[C@H]1CC[C@H](C)CC1)C1CCOCC1 (relative stereo) [Example 24.3, 3-{6-(3-chlorophenyl)-7-[(trans-4-methylcyclohexyl)methyl]-8-[1-(tetrahydro-2H-pyran-4-yl)ethyl]-7H-purin-2-yl}-1,2,4-oxadiazol-5(4H)-one]	7.85

Same assay, conditions: Table 9; read-out: FRET IC50

Structure (SMILES)	pIC50
C[C@@H](Nc1nc(C(=O)O)nc2nc(N3CCCC3c3ccccc3)n(Cc3ccc(C(F)(F)F)cc3)c12)C1CCC1 (single isomer, unassigned) [Example 9.64]	7.99
C[C@@H](Nc1nc(C(=O)O)nc2nc(N3CCCC3c3ccccc3)n(Cc3ccc(C(F)(F)F)cc3)c12)C1CCC1 (single isomer, unassigned) [Example 9.65]	7.94

Same assay, conditions: Table 11; read-out: FRET IC50

Structure (SMILES)	pIC50
C[C@@H](Nc1nc(-c2noc(=O)[nH]2)nc2nc(N3CCCCC3c3cccnc3)n(C[C@H]3CC[C@H](C)CC3)c12)C1CCC1 (single isomer, unassigned) [Example 11.49]	8.61
C[C@@H](Nc1nc(-c2noc(=O)[nH]2)nc2nc(N3CCCCC3c3cccnc3)n(C[C@H]3CC[C@H](C)CC3)c12)C1CCC1 (single isomer, unassigned) [Example 11.50]	7.84
C[C@@H]1CCCCN1c1nc2nc(-c3nc(=O)o[nH]3)nc(N[C@H](C)C3CCC3)c2n1C[C@H]1CC[C@H](C)CC1 (single isomer, unassigned) [Example 11.58]	8.27
C[C@@H](Nc1nc(-c2nc(=O)o[nH]2)nc2nc(N3CCCC[C@@H]3C)n(C[C@H]3CC[C@H](C)CC3)c12)C1CCC1 (single isomer, unassigned) [Example 11.59]	7.87
CC1CCN(c2nc3nc(-c4noc(=O)[nH]4)nc(N[C@H](C)C4CCC4)c3n2C[C@H]2CC[C@H](C)CC2)C(c2ccccc2)C1 (single isomer, unassigned) [Example 11.68]	8.69
CC1CCN(c2nc3nc(-c4noc(=O)[nH]4)nc(N[C@H](C)C4CCC4)c3n2C[C@H]2CC[C@H](C)CC2)C(c2ccccc2)C1 (single isomer, unassigned) [Example 11.69]	7.76
C[C@@H](Nc1nc(-c2noc(=O)[nH]2)nc2nc(N3CCOCC3c3ccccc3Cl)n(C[C@H]3CC[C@H](C)CC3)c12)C1CCC1 (single isomer, unassigned) [Example 11.117]	8.42
C[C@@H](Nc1nc(-c2noc(=O)[nH]2)nc2nc(N3CCOCC3c3ccccc3Cl)n(C[C@H]3CC[C@H](C)CC3)c12)C1CCC1 (single isomer, unassigned) [Example 11.118]	9.25
C[C@@H](Nc1nc(-c2noc(=O)[nH]2)nc2nc(NC(CO)c3ccccc3)n(C[C@H]3CC[C@H](C)CC3)c12)C1CCC1 (single isomer, unassigned) [Example 11.121]	7.40
C[C@@H](Nc1nc(-c2noc(=O)[nH]2)nc2nc(NC(CO)c3ccccc3)n(C[C@H]3CC[C@H](C)CC3)c12)C1CCC1 (single isomer, unassigned) [Example 11.122]	8.38
C[C@@H](Nc1nc(-c2n[nH]c(=O)o2)nc2nc(N3CCOC4CCCCC43)n(C[C@H]3CC[C@H](C)CC3)c12)C1CCC1 (single isomer, unassigned) [Example 11.125]	8.13
C[C@@H](Nc1nc(-c2n[nH]c(=O)o2)nc2nc(N3CCOC4CCCCC43)n(C[C@H]3CC[C@H](C)CC3)c12)C1CCC1 (single isomer, unassigned) [Example 11.126]	8.84

Same assay, conditions: Table 23; read-out: FRET IC50

Structure (SMILES)	pIC50
C[C@H]1CC[C@H](Cn2c(C(O)C3CCOCC3)nc3nc(-c4n[nH]c(=O)o4)nc(-c4cccc(Cl)c4)c32)CC1 (mixture of isomers) [Example 23.1, 5-{6-(3-chlorophenyl)-8-[hydroxy(tetrahydro-2H-pyran-4-yl)methyl]-7-[(trans-4-methylcyclohexyl)methyl] -7H-purin-2-yl}-1,3,4-oxadiazol-2(3H)-one]	7.17
C[C@H]1CC[C@H](Cn2c(C(O)C3CCOCC3)nc3nc(-c4noc(=O)[nH]4)nc(-c4cccc(Cl)c4)c32)CC1 (mixture of isomers) [Example 23.2, 3-{6-(3-chlorophenyl)-8-[hydroxy(tetrahydro-2H-pyran-4-yl)methyl]-7-[(trans-4-methylcyclohexyl)methyl]-7H-purin-2-yl}-1,2,4-oxadiazol-5(4H)-one]	7.29
CC(O)(c1nc2nc(-c3noc(=O)[nH]3)nc(-c3cccc(Cl)c3)c2n1C[C@H]1CC[C@H](C)CC1)C1CCOCC1 (mixture of isomers) [Example 23.4, 3-{6-(3-chlorophenyl)-8-[1-hydroxy-1-(tetrahydro-2H-pyran-4-yl)ethyl]-7-[(trans-4-methylcyclohexyl)methyl]-7H-purin-2-yl}-1,2,4-oxadiazol-5(4H)-one]	7.72
COC(c1nc2nc(-c3noc(=O)[nH]3)nc(-c3cccc(Cl)c3)c2n1C[C@H]1CC[C@H](C)CC1)C1CCOCC1 (mixture of isomers) [Example 23.12, 3-{6-(3-chlorophenyl)-8-[methoxy(tetrahydro-2H-pyran-4-yl)methyl]-7-[(trans-4-methylcyclohexyl)methyl] -7H-purin-2-yl}-1,2,4-oxadiazol-5(4H)-one]	7.88
C[C@H]1CC[C@H](Cn2c(C(O)C3CCOCC3)nc3nc(-c4noc(=O)[nH]4)nc(-c4cncc(Cl)c4)c32)CC1 (mixture of isomers) [Example 23.17, 3-{6-(5-chloropyridin-3-yl)-8-[hydroxy(tetrahydro-2H-pyran-4-yl)methyl]-7-[(trans-4-methylcyclohexyl)methyl] -7H-purin-2-yl}-1,2,4-oxadiazol-5(4H)-one]	7.17
COC(c1ccccc1F)c1nc2nc(-c3n[nH]c(=O)o3)nc(-c3cncc(Cl)c3)c2n1C[C@H]1CC[C@H](C)CC1 (mixture of isomers) [Example 23.103, 5-{6-(5-chloropyridin-3-yl)-8-[(2-fluorophenyl)(methoxy)methyl]-7-[(trans-4-methylcyclohexyl)methyl]-7H-purin-2-yl}-1,3,4-oxadiazol-2(3H)-one]	8.77
COC(c1ccccc1C#N)c1nc2nc(-c3noc(=O)[nH]3)nc(-c3cncc(Cl)c3)c2n1C[C@H]1CC[C@H](C)CC1 (mixture of isomers) [Example 23.109, 2-{[6-(5-chloropyridin-3-yl)-7-[(trans-4-methylcyclohexyl)methyl]-2-(5-oxo-4,5-dihydro-1,2,4-oxadiazol-3-yl)-7H-purin-8-yl](methoxy)methyl}benzonitrile]	9.15
COC1(c2nc3nc(-c4noc(=O)[nH]4)nc(-c4cncc(Cl)c4)c3n2C[C@H]2CC[C@H](C)CC2)CCCCC1C (relative stereo) [Example 23.63, 3-{6-(5-chloropyridin-3-yl)-8-(1-methoxy-2-methylcyclohexyl)-7-[(trans-4-methylcyclohexyl)methyl] -7H-purin-2-yl}-1,2,4-oxadiazol-5(4H)-one]	8.12
COC1(c2nc3nc(-c4n[nH]c(=O)o4)nc(-c4cncc(Cl)c4)c3n2C[C@H]2CC[C@H](C)CC2)CCCCC1C (relative stereo) [Example 23.64, 5-{6-(5-chloropyridin-3-yl)-8-(1-methoxy-2-methylcyclohexyl)-7-[(trans-4-methylcyclohexyl)methyl] -7H-purin-2-yl}-1,3,4-oxadiazol-2(3H)-one]	8.06
CC1CCCCC1(F)c1nc2nc(-c3noc(=O)[nH]3)nc(-c3cncc(Cl)c3)c2n1C[C@H]1CC[C@H](C)CC1 (relative stereo) [Example 23.65, 3-{6-(5-chloropyridin-3-yl)-8-(1-fluoro-2-methylcyclohexyl)-7-[(trans-4-methylcyclohexyl)methyl] -7H-purin-2-yl}-1,2,4-oxadiazol-5(4H)-one]	8.18
